Data reported in patent publication US20220304957A1, “ANTI-CANCER COMPOSITIONS AND METHODS OF USE” (Board of Supervisors of Louisiana State University and …, priority 2019, published 2022).
Read-outs that look alike come from different tables or passages of the source.

Assays:
[1] = Toxicity in mice: body weight and histopathology; type: in vivo, C57BL/6 mice; details: 14 days
Experimental: Panel A: PP1 accumulation in different tissues following oral administration of PP1 (25 mg/kg). C57BL/6 mice were treated daily for 14 days, and the levels of PP1 in the blood, liver, spleen, kidney, heart, brain and in brain tumors, were evaluated by HPLC, as previously described. Data represent average values with standard deviation (n=3). Panel B: Body weight of C57BL/6 mice treated with PP1. Mice were treated with the PP1 at doses ranging from 25 to 75 mg/kg/day administered by oral gavage. Following 7 and 14 days of daily drug administration both control (DMSO-treated) and experimental (PP1-treated) mice were weighted. Data represent average values with standard deviation (at least three mice per group were included). In Panels A and B, tumor free and tumor bearing mice were included for the body weight measurement. Panels C, D and E: Intracranial growth of GL-261-Luc cells. C57 black mice, 6-8 weeks of age were anesthetized with 4% isoflurane and secured in a stereotaxic head frame (Harvard Apparatus, Holliston Mass.). GL-261-luc cells (1×10^5 cells in 2 μl; PerkinElmer Inc.) were injected into the brain parenchyma (coordinates: 3 mm anterior to Bregma; 1.5 mm lateral to Sagital suture; 3 mm down from surface) through a burr hole in the skull using a 10 μl Hamilton syringe. Panel C: Mice with large intracranial tumors were selected using bioluminescence imaging with Xenogen IVIS 200 system. Tumor size is expressed as radiance (photons/s/cm2/sr) and was quantified with the Living Image 4.1 software according to the manufacturer's recommendations (Xenogen). Panels D and E: Pathological evaluation of intracranial tumors and tissues. Following 14 days of drug administration (control: DMSO administered daily by oral gavage; PP1 50 mg/kg administered daily by oral gavage) the animals were euthanized, and the following organs were collected: liver, kidneys, spleen, heart, intact brain and intracranial tumors. The tissues were formalin-fixed, paraffin-embedded, and the resulting thin section were stained with hematoxylin and eosin (H&E) for a routine pathological evaluation.
Animal studies—All described procedures involving experimental animals were performed in accordance to the IACUC protocol #3444 at LSUHSC, New Orleans. C57BL/6NHsd mice, 11-12 weeks of age (Envigo), were anesthetized with 4% isoflurane and secured in a stereotaxic head frame (Harvard Apparatus, Holliston Mass.). […] The resulting images were evaluated and luminescence measurements from equivalent regions of interest encompassing the entire skull were collected using Living Image 4.1 software (Xenogen). […]

[2] = Stability in human blood (HPLC); type: in vitro ADME; details: 50 μM added, 37 °C, 48-hour time point
Experimental: Aliquots of 50 μM PP1 and FF in DMSO were added to 500 μl to heparinized human blood to a final concentration of 50 μM. Following incubation at 37° C. for the indicated time points, the samples were frozen at −80° C., and later prepared for HPLC-based detection of the compounds. Please note that FF is converted to FA in the presence of human blood. […] Data represent average values with standard deviation (n=3). panel B: Water solubility. FF and PP1, were added to water to a final concentration of 50 mM and sonicated in an ultrasonic bath (Branson 1510 Digital Heated Ultrasonic bath) for one hour at room temperature. The samples were then centrifuged for 10 minutes at 16000×g, and the supernatant filtered through 0.45 μm syringe filter. […] The PPAR transcriptional activity was determined in HepG2 cells by the JsTkpGL3 reporter plasmid, which contains a firefly luciferase gene driven by the PPRE, which consists of three copies of the J site from the apo-AII gene promoter. […] The luciferase activity was detected with Dual-Luciferase reporter assay system (Promega, Madison, Wis.), and the resulting luminescence measured with Synergy 2 microplate reader (BioTek, Winooski, Vt.). […]
In this experiment, 50 μM of PP1 and 50 μM of FF were incubated with human blood at […], at indicated time points. […] In contrast, nearly 25 μM of PP1 was still detected at the 48-hour time point (FIG. 4A; left panel).

[3] = tested on: LN-229 human glioblastoma cells; details: for % cell death: 72-/96-hour time points
[4] = tested on: intracranial GL-261 glioblastoma tumors; experiment: Intracranial GL-261-luc glioblastoma model, pathological evaluation of tumors; type: in vivo, C57BL/6 mice; details: 50 mg/kg/day oral, 14 days, large pre-existing tumors, n=3
Experimental: Panel A: PP1 accumulation in different tissues following oral administration of PP1 (25 mg/kg). C57BL/6 mice were treated daily for 14 days, and the levels of PP1 in the blood, liver, spleen, kidney, heart, brain and in brain tumors, were evaluated by HPLC, as previously described. Data represent average values with standard deviation (n=3). Panel B: Body weight of C57BL/6 mice treated with PP1. Mice were treated with the PP1 at doses ranging from 25 to 75 mg/kg/day administered by oral gavage. Following 7 and 14 days of daily drug administration both control (DMSO-treated) and experimental (PP1-treated) mice were weighted. Data represent average values with standard deviation (at least three mice per group were included). In Panels A and B, tumor free and tumor bearing mice were included for the body weight measurement. Panels C, D and E: Intracranial growth of GL-261-Luc cells. […] Tumor size is expressed as radiance (photons/s/cm2/sr) and was quantified with the Living Image 4.1 software according to the manufacturer's recommendations (Xenogen). […]
Animal studies—All described procedures involving experimental animals were performed in accordance to the IACUC protocol #3444 at LSUHSC, New Orleans. […] The resulting images were evaluated and luminescence measurements from equivalent regions of interest encompassing the entire skull were collected using Living Image 4.1 software (Xenogen). […]

SMILES: CN(CCO)C(=O)C(C)(C)Oc1ccc(C(=O)c2ccc(Cl)cc2)cc1 [PP1, 2-[4-(4-chlorobenzoyl)phenoxy]-N-(2-hydroxyethyl)-N,2-dimethylpropanamide]
- overall toxicity and body weight ([1]; 25-75 mg/kg/day oral gavage, tumor-free and tumor bearing mice): did not show any signs of overall toxicity and maintained their body weight
- histology, heart, kidney and intact brain ([1]; oral gavage daily): did not show any signs of pathology
- histology, liver ([1]; oral gavage daily): inflammation and focal necrotic areas in the liver
- histology, spleen ([1]; oral gavage daily): enlarged spleen with accumulation of hemosiderin
- compound still detected in human blood [2]: ~25 µM
- % cell death ([3]; 5 μM): 74+/−3%
- % cell death ([3]; 10 μM): 92+/−2%
- cell death ([3]; 25 and 50 μM, 72- and 96-hour time points): extensive cell death
- concentration triggering extensive glioblastoma cell death, fold lower than FF ([3]; in vitro): ~5 fold
- necrosis within the tumor mass [4]: multiple large areas of necrotic tissue within the tumor mass
